Each structure is given as a SMILES string. pIC50: −log10 of the molar value.

The assay concerns the target hROMK (human Kir1.1) (Homo sapiens (Human), UniProt P48048). As to the kind of experiment: Thallium Flux Assay. The note with it: CHO T-Rex hROMK stable cell line, 10-point concentration response; read-out: hROMK Th+ Flux IC50. Format: cell-based. The protocol:
Solutions and reagents: Thallium flux assay was performed using FluxOR kit (F10017, Life Technologies). Loading buffer, assay buffer and stimulus buffer were prepared using kit components. HBSS (Hank's balanced salt solution, Cat #14025-092) was purchased separately from Life Technologies.
To prepare 10 ml of loading buffer: 10 μl of FluxOR dye (reconstituted in DMSO) was first added to 100 μl of powerload concentrate and this mix along with 100 μl of Probenicid (100×) was then added to 9.79 ml of HBSS. Assay buffer (10 ml) was prepared by addition of 2 ml of FluxOR chloride free buffer (5×), 100 μl of Probenicid (100×), and 0.2 ml of Ouabain (13.77 mM) to 7.7 ml of deionized water. Stimulus buffer was composed of 15 mM Tl2SO4, 0.75 mM K2SO4 in FluxOR chloride free buffer (diluted to 1× using deionized water). The final concentration of Tl2SO4 and K2SO4 in the assay plate was 3 mM and 0.15 mM, respectively.
Plating and induction of cells: The CHO T-Rex hROMK (human Kir1.1) stable cell line was maintained in Ham's F12 media supplemented with 10% FBS, 1% Penicillin-Streptomycin, 500 μg/ml Zeocin and 10 μg/ml Blasticidin at 37° C. in a 5% CO2 incubator. One day before the experiment, the cells were dissociated by incubation with Versene solution (15040-066, Life Technologies) for 10 minutes at 37° C. followed by addition of growth media. The cell suspension was centrifuged at 1200 rpm for 5 min. After discarding the supernatant, the cells were resuspended in fresh growth media and cell concentration was determined using a hemocytometer. Next, 0.5 μg/ml of Doxycycline was added to the cell suspension to induce hROMK channel expression and 50 μl (10,000 cells/well) of cell suspension was added to each well of a poly-D lysine coated 384 well black, optically clear bottom plate (6007718, Perkin Elmer). The assay plate was kept at 37° C. in a 5% CO2 incubator.
Assay protocol: On the day of experiment, media was removed and loading buffer was added (30 μl/well) to the assay plate. The cells were incubated in the loading buffer for 30 minutes at 37° C. The loading buffer was then replaced by assay buffer (30 μl/well) followed by addition of test compounds or controls. The cells were incubated with compounds for 30 minutes and the plate was then mounted on FlexStation (Molecular Devices) for fluorescence read out with excitation and emission wavelengths at 488 and 525 nm, respectively. Each well was read for 90 sec at 2 sec interval and the stimulus buffer was added after 20 seconds of baseline recording. The final DMSO concentration was either 0.5 or 1% in the assay plate. […] controls were defined by addition of DMSO or 3 μM of a standard ROMK inhibitor, respectively, to the wells instead of a test compound.
A 10-point concentration response curve was used to estimate the IC50 value of test compounds.
The data in Table 3 is reported with two significant figures.

Sequence of hROMK (human Kir1.1) (P48048 whole entry): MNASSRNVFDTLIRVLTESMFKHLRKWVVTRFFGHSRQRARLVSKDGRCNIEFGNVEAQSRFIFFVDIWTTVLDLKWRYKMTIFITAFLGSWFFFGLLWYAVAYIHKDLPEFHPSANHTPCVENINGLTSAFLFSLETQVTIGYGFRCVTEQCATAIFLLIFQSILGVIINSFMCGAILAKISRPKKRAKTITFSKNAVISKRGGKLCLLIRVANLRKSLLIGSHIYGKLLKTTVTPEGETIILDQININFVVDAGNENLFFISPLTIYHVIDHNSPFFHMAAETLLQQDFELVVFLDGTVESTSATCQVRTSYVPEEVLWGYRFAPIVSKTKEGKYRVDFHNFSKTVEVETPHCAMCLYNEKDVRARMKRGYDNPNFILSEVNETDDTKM

Usually pIC50 stands for the IC50 on a negative log10 scale, so that one unit is a factor of ten. For `Cc1c(C(CO)N2CCc3cc(Nc4ccc(C#N)c(F)c4)ccc3C2)ccc2c1COC2=O` (single isomer, unassigned) [Example 33-I, 2-fluoro-4-((2-(2-hydroxy-1-(4-methyl-1-oxo-1,3-dihydroisobenzofuran-5-yl)ethyl)-1,2,3,4-tetrahydroisoquinolin-6-yl)amino) benzonitrile], the negative-log IC50 (pIC50) was 6.31.
Regarding `Cc1c(C(CO)N2CCc3cc(Nc4ccc(C#N)c(F)c4)ccc3C2)ccc2c1COC2=O` (single isomer, unassigned) [Example 33-II, 2-fluoro-4-((2-(2-hydroxy-1-(4-methyl-1-oxo-1,3-dihydroisobenzofuran-5-yl)ethyl)-1,2,3,4-tetrahydroisoquinolin-6-yl)amino) benzonitrile], the negative-log IC50 (pIC50) was 5.74.
Regarding `Cc1c(C(O)CN2CCc3nc(-n4ncc5c(C#N)ccnc54)ncc3C2)ccc2c1COC2=O` (single isomer, unassigned) [Example 35-I, 1-(6-(2-hydroxy-2-(4-methyl-1-oxo-1,3-dihydroisobenzofuran-5-yl)ethyl)-5,6,7,8-tetrahydropyrido[4,3-d]pyrimidin-2-yl)-1H-pyrazolo[3,4-b]pyridine-4-carbonitrile], the pIC50 is 6.10.
`Cc1c(C(O)CN2CCc3nc(-n4ncc5c(C#N)ccnc54)ncc3C2)ccc2c1COC2=O` (single isomer, unassigned) [Example 35-II, 1-(6-(2-hydroxy-2-(4-methyl-1-oxo-1,3-dihydroisobenzofuran-5-yl)ethyl)-5,6,7,8-tetrahydropyrido[4,3-d]pyrimidin-2-yl)-1H-pyrazolo[3,4-b]pyridine-4-carbonitrile]: the negative logarithm of the IC50 (pIC50) is 5.31.
Next, `Cc1c(C(O)CN2CCc3nc(-n4ncc5ncccc54)ncc3C2)ccc2c1COC2=O` (single isomer, unassigned) [Example 41-II, 5-(2-(2-(1H-pyrazolo[4,3-b]pyridin-1-yl)-7,8-dihydropyrido[4,3-d]pyrimidin-6(5H)-yl)-1-hydroxyethyl)-4-methylisobenzofuran-1(3H)-one]: 5.92; `Cc1c(C(O)CN2CCc3nc(-n4ccc5c(C#N)cncc54)ncc3C2)ccc2c1COC2=O` (single isomer, unassigned) [Example 42-II, 1-(6-(2-hydroxy-2-(4-methyl-1-oxo-1,3-dihydroisobenzofuran-5-yl)ethyl)-5,6,7,8-tetrahydropyrido[4,3-d]pyrimidin-2-yl)-1H-pyrrolo[2,3-c]pyridine-4-carbonitrile]: 6.68; `Cc1c(C(O)CN2CCc3nc(-n4ncc5c(C#N)cncc54)ncc3C2)ccc2c1COC2=O` (single isomer, unassigned) [Example 43-II, 1-(6-(2-hydroxy-2-(4-methyl-1-oxo-1,3-dihydroisobenzofuran-5-yl)ethyl)-5,6,7,8-tetrahydropyrido[4,3-d]pyrimidin-2-yl)-1H-pyrazolo[3,4-c]pyridine-4-carbonitrile]: 6.19.
As to `Cc1c(C(O)CN2CCc3nc(-n4ccc5cc(C#N)cnc54)ncc3C2)ccc2c1COC2=O` (single isomer, unassigned) [Example 44-I, 1-(6-(2-hydroxy-2-(4-methyl-1-oxo-1,3-dihydroisobenzofuran-5-yl)ethyl)-5,6,7,8-tetrahydropyrido[4,3-d]pyrimidin-2-yl)-1H-pyrrolo[2,3-b]pyridine-5-carbonitrile], the pIC50 was 5.68.
Take `Cc1c(C(CO)N2CCc3nc(-n4ccc5cc(C#N)cnc54)ncc3C2)ccc2c1COC2=O` (single isomer, unassigned) [Example 45-I, 1-(6-(2-hydroxy-1-(4-methyl-1-oxo-1,3-dihydroisobenzofuran-5-yl)ethyl)-5,6,7,8-tetrahydropyrido[4,3-d]pyrimidin-2-yl)-1H-pyrrolo[2,3-b]pyridine-5-carbonitrile]: the negative logarithm of the IC50 (pIC50) is 5.33.
For `Cc1c(C(O)CN2CCc3nc(-n4ncc5cc(C#N)ccc54)ncc3C2)ccc2c1COC2=O` (single isomer, unassigned) [Example 50, 1-(6-(2-hydroxy-2-(4-methyl-1-oxo-1,3-dihydroisobenzofuran-5-yl)ethyl)-5,6,7,8-tetrahydropyrido[4,3-d]pyrimidin-2-yl)-1H-indazole-5-carbonitrile], the negative logarithm of the IC50 (pIC50) is 6.15.
Regarding `CCOC(=O)c1cnc2cnn(-c3ncc4c(n3)CCN(CC(O)c3ccc5c(c3C)COC5=O)C4)c2c1` (single isomer, unassigned) [Example 51-I, ethyl 1-(6-(2-hydroxy-2-(4-methyl-1-oxo-1,3-dihydroisobenzofuran-5-yl)ethyl)-5,6,7,8-tetrahydropyrido[4,3-d]pyrimidin-2-yl)-1H-pyrazolo[4,3-b]pyridine-6-carboxylate], the pIC50 was 6.31.
With `COC(=O)c1cnc2ccn(-c3ncc4c(n3)CCN(CC(O)c3ccc5c(c3C)COC5=O)C4)c2c1` (single isomer, unassigned) [Example 52-I, methyl 1-(6-(2-hydroxy-2-(4-methyl-1-oxo-1,3-dihydroisobenzofuran-5-yl)ethyl)-5,6,7,8-tetrahydropyrido[4,3-d]pyrimidin-2-yl)-1H-pyrrolo[3,2-b]pyridine-6-carboxylate], the negative logarithm of the IC50 (pIC50) is 5.91.
On to `Cc1c(C(O)CN2CCc3nc(-n4cnc5cccnc54)ncc3C2)ccc2c1COC2=O` (single isomer, unassigned) [Example 55-I, 5-(2-(2-(3H-imidazo[4,5-b]pyridin-3-yl)-7,8-dihydropyrido[4,3-d]pyrimidin-6(5H)-yl)-1-hydroxyethyl)-4-methylisobenzofuran-1(3H)-one], for which the negative logarithm of the IC50 (pIC50) was 5.83.
For `Cc1c(CN2Cc3cnc(Nc4ccc(C#N)c(F)c4)nc3CC2CO)ccc2c1COC2=O` (single isomer, unassigned) [Example 57-I, 2-fluoro-4-((7-(hydroxymethyl)-6-((4-methyl-1-oxo-1,3-dihydroisobenzo-furan-5-yl)methyl)-5,6,7,8-tetrahydro-pyrido[4,3-d]pyrimidin-2-yl)amino) benzonitrile], the negative-log IC50 (pIC50) was 6.08.
On to `Cc1c(C(O)CN2CCc3nc(Nc4cncc(C#N)c4)ncc3C2)ccc2c1COC2=O` (single isomer, unassigned) [Example 61-I, 5-((6-(2-hydroxy-2-(4-methyl-1-oxo-1,3-dihydroisobenzofuran-5-yl)ethyl)-5,6,7,8-tetrahydropyrido[4,3-d]pyrimidin-2-yl)amino)nicotinonitrile], for which the pIC50 is 6.25.
Regarding `Cc1c(C(O)CN2CCc3nc(Nc4ccc5oc(=O)n(C)c5c4)ncc3C2)ccc2c1COC2=O` (single isomer, unassigned) [Example 62-I, 5-((6-(2-hydroxy-2-(4-methyl-1-oxo-1,3-dihydroisobenzofuran-5-yl)ethyl)-5,6,7,8-tetrahydropyrido[4,3-d]pyrimidin-2-yl)amino)-3-methylbenzo[d] oxazol-2(3H)-one], the negative-log IC50 (pIC50) was 5.99.
Next, `Cc1c(C(O)CN2CCc3nc(Nc4ccc(-n5cnnn5)cn4)ncc3C2)ccc2c1COC2=O` (single isomer, unassigned) [Example 63-I, 5-(2-(2-((5-(1H-tetrazol-1-yl)pyridine-2-yl)amino)-7,8-dihydropyrido[4,3-d]pyrimidin-6(5H)-yl)-1-hydroxyethyl)-4-methylisobenzofuran-1(3H)-one]: 5.91.
For the molecule `COc1cc(Nc2ncc3c(n2)CCN(CC(O)c2ccc4c(c2C)COC4=O)C3)ncc1C#N` (single isomer, unassigned) [Example 64-I, 6-((6-(2-hydroxy-2-(4-methyl-1-oxo-1,3-dihydroisobenzofuran-5-yl)ethyl)-5,6,7,8-tetrahydropyrido[4,3-d]pyrimidin-2-yl)amino)-4-methoxynicotinonitrile], the pIC50 is 6.42.
In the case of `Cc1c(C(O)CN2CCc3nc(N4CCc5c(C#N)cccc54)ncc3C2)ccc2c1COC2=O` (single isomer, unassigned) [Example 65-II, 1-(6-(2-hydroxy-2-(4-methyl-1-oxo-1,3-dihydroisobenzofuran-5-yl)ethyl)-5,6,7,8-tetrahydropyrido[4,3-d]pyrimidin-2-yl)indoline-4-carbonitrile], the pIC50 is 6.42.

(Values after patent US10851108B2, “Substituted bicyclic heterocyclic compounds” (BRISTOL-MYERS SQUIBB COMPANY, priority 2016, dated 2020).)
